The record followed here is patent US12275733B2, “Substituted pyrido[3,4-b]indoles for the treatment of cartilage disorders” (Sanofi, priority 2016, dated 2025).

The assay has as its system ATDC5 cells. The experiment in a line: Chondrogenesis activity assay in ATDC5 cells (collagen type II induction, immunofluorescence). The note with it: Mus musculus; for EC50: collagen type II induction in ATDC5 cells, concentration reaching 50% of maximum induction; for Emax: maximum percent induction of collagen type II relative to internal reference compound at 10 μM, ATDC5 cells. The format is cell-based, mouse. In short, it runs like this:
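Mouse ATDC5 cells in insulin (10 μg/ml)-containing DMEM/F12 differentiation medium with 5% FCS were exposed to compound, typically 40 nM–10 μM at 0.1% DMSO, for 4 days at 37 °C. Intracellular collagen type II was quantified by Alexa Fluor 488 immunostaining with high-content imaging, relative to DMSO and a 10 μM reference compound.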

By EC50 is commonly meant the concentration at which the effect is half-maximal. For orientation: Emax means the size of the effect at its maximum, as opposed to the concentration needed. As to `Cc1nccc2c1[nH]c1c(-c3cnc(-n4cccn4)nc3)cc(Cl)cc12` [Example 237, 6-Chloro-1-methyl-8-(2-pyrazol-1-yl-pyrimidin-5-yl)-9H-pyrido[3,4-b]indole], a half-maximal effect (EC50) was put at 500 nM and the Emax is more than 80%.

In turn, `CCn1c2c(-c3ccc(C(O)c4ccccc4)cc3)cc(Cl)cc2c2ccnc(C)c21` (centres unmarked) [Example 238, [4-(6-Chloro-9-ethyl-1-methyl-9H-pyrido[3,4-b]indol-8-yl)-phenyl]-phenyl-methanol] displayed an EC50 of 1400 nM and an Emax of more than 80%.

On to `CCn1c2c(-c3cn[nH]c3)cc(Cl)cc2c2ccnc(C)c21` [Example 239, 6-Chloro-9-ethyl-1-methyl-8-(1H-pyrazol-4-yl)-9H-pyrido[3,4-b]indole], for which the half-maximal effective concentration (EC50) was 250 nM and the Emax fell in the range of 50 to 80%.

On to `COc1ccc(-c2cc(Cl)cc3c4ccnc(C)c4n(C)c23)nc1N` [Example 240, 6-(6-Chloro-1,9-dimethyl-9H-pyrido[3,4-b]indol-8-yl)-3-methoxy-pyridin-2-ylamine], for which the EC50 stood at 490 nM and the Emax is 50 to 80%.

On to `Cc1nccc2c1[nH]c1c(-c3cnn(Cc4ccccn4)c3)cc(Cl)cc12` [Example 242, 6-Chloro-1-methyl-8-(1-pyridin-2-ylmethyl-1H-pyrazol-4-yl)-9H-pyrido[3,4-b]indole], for which the EC50 came to 570 nM and the Emax is more than 80%.

The compound `Cc1nccc2c1[nH]c1c(-c3ccc([S+](C)[O-])cc3)cc(Cl)cc12` (centres unmarked) [Example 243, 6-Chloro-8-(4-methanesulfinyl-phenyl)-1-methyl-9H-pyrido[3,4-b]indole] showed an EC50 of 660 nM and an Emax of more than 80%.

With `CCn1c2c(-c3ccc(Oc4ccccc4)cc3)cc(Cl)cc2c2ccnc(C)c21` [Example 246, 6-Chloro-9-ethyl-1-methyl-8-(4-phenoxy-phenyl)-9H-pyrido[3,4-b]indole], the EC50 worked out at 2900 nM and the Emax is 50 to 80%.

The compound `Cc1nccc2c1[nH]c1c(-c3cccc(CCO)c3)cc(Cl)cc12` [Example 248, 2-[3-(6-Chloro-1-methyl-9H-pyrido[3,4-b]indol-8-yl)-phenyl]-ethanol] displayed an EC50 of more than 3300 nM and an Emax of 20 to 50%.

`Cc1nccc2c1[nH]c1c(-c3cccc(OCCN4CCOCC4)c3)cc(Cl)cc12` [Example 249, 6-Chloro-1-methyl-8-[3-(2-morpholin-4-yl-ethoxy)-phenyl]-9H-pyrido[3,4-b]indole] registered an EC50 of more than 3300 nM and an Emax of 20 to 50%.

As to `Cc1nccc2c1[nH]c1c(-c3ccc(C(F)(F)F)cc3)cc(Cl)cc12` [Example 252, 6-Chloro-1-methyl-8-(4-trifluoromethyl-phenyl)-9H-pyrido[3,4-b]indole], the EC50 is 1600 nM and the Emax is more than 80%.

For `CCn1c2c(-c3cccc(N4CCOCC4)c3)cc(Cl)cc2c2ccnc(C)c21` [Example 253, 6-Chloro-9-ethyl-1-methyl-8-(3-morpholin-4-yl-phenyl)-9H-pyrido[3,4-b]indole], the EC50 was more than 10000 nM and the Emax lay within 20 to 50%.

For `CCn1c2c(-c3cccc(CN4CCOCC4)c3)cc(Cl)cc2c2ccnc(C)c21` [Example 254, 6-Chloro-9-ethyl-1-methyl-8-(3-morpholin-4-ylmethyl-phenyl)-9H-pyrido[3,4-b]indole], the EC50 was more than 3300 nM and the Emax was less than 20%.

Take `Cc1nccc2c1[nH]c1c(-c3cccc(CN4CCOCC4)c3)cc(Cl)cc12` [Example 255, 6-Chloro-1-methyl-8-(3-morpholin-4-ylmethyl-phenyl)-9H-pyrido[3,4-b]indole]: the EC50 was more than 3300 nM and the Emax was less than 20%.

`CCn1c2c(-c3ccc(OCC4(C)COC4)cc3)cc(Br)cc2c2ccnc(C)c21` [Example 257, 6-Bromo-9-ethyl-1-methyl-8-[4-(3-methyl-oxetan-3-ylmethoxy)-phenyl]-9H-pyrido[3,4-b]indole] gave an EC50 of 310 nM and a maximal effect (Emax) of more than 80%.

Consider `Cc1nccc2c1[nH]c1c(-c3ccc(OCCn4cccn4)cc3)cc(Br)cc12` [Example 259, 6-Bromo-1-methyl-8-[4-(2-pyrazol-1-yl-ethoxy)-phenyl]-9H-pyrido[3,4-b]indole], for which a half-maximal effect (EC50) was put at 430 nM and the Emax was more than 80%.

For the compound `Cc1nccc2c1[nH]c1c(-c3cccc(OCc4ccc5ccccc5n4)c3)cc(Cl)cc12` [Example 260, 6-Chloro-1-methyl-8-[3-(quinolin-2-ylmethoxy)-phenyl]-9H-pyrido[3,4-b]indole], the EC50 is more than 1100 nM and the Emax is less than 20%.

The compound `CCn1c2c(-c3cnn(Cc4ccccn4)c3)cc(Br)cc2c2ccnc(C)c21` [Example 261, 6-Bromo-9-ethyl-1-methyl-8-(1-pyridin-2-ylmethyl-1H-pyrazol-4-yl)-9H-pyrido[3,4-b]indole] displayed an EC50 of 1500 nM and an Emax of more than 80%.

`Cc1nccc2c1[nH]c1c(-c3ccc(OC(F)(F)F)cc3)cc(Cl)cc12` [Example 262] yielded an EC50 of 2300 nM and a maximal effect (Emax) of more than 80%.

For `CCn1c2c(-c3cnn(CCOC(C)=O)c3)cc(Cl)cc2c2ccnc(C)c21` [Example 263, Acetic acid 2-[4-(6-chloro-9-ethyl-1-methyl-9H-pyrido[3,4-b]indol-8-yl)-pyrazol-1-yl]-ethyl ester], a half-maximal response (EC50) required 550 nM and the Emax was more than 80%.

Compound `Cc1nccc2c1[nH]c1c(-c3ccc(OCc4ncccn4)cc3)cc(Cl)cc12` [Example 266, 6-Chloro-1-methyl-8-[4-(pyrimidin-2-ylmethoxy)-phenyl]-9H-pyrido[3,4-b]indole] yielded an EC50 of 110 nM and an Emax of more than 80%.

Take `Cc1nccc2c1[nH]c1c(-c3cccc(OCc4ncccn4)c3)cc(Cl)cc12` [Example 267, 6-Chloro-1-methyl-8-[3-(pyrimidin-2-ylmethoxy)-phenyl]-9H-pyrido[3,4-b]indole]: the EC50 was more than 3300 nM and the Emax fell in the range of 50 to 80%.

With `Cc1nccc2c1[nH]c1c(-c3ccc(Oc4ncc(Br)cn4)cc3)cc(Cl)cc12` [Example 268, 8-[4-(5-Bromo-pyrimidin-2-yloxy)-phenyl]-6-chloro-1-methyl-9H-pyrido[3,4-b]indole], the EC50 was found to be 340 nM and the maximum response (Emax) was more than 80%.

With `Cc1nccc2c1[nH]c1c(-c3cccc(OCc4nccc5ccccc45)c3)cc(Cl)cc12` [Example 269, 6-Chloro-8-[3-(isoquinolin-1-ylmethoxy)-phenyl]-1-methyl-9H-pyrido[3,4-b]indole], the EC50 was more than 3300 nM and the Emax was 20 to 50%.

Regarding `COc1cc(OC)nc(COc2cccc(-c3cc(Cl)cc4c3[nH]c3c(C)nccc34)c2)n1` [Example 272, 6-Chloro-8-[3-(4,6-dimethoxy-pyrimidin-2-ylmethoxy)-phenyl]-1-methyl-9H-pyrido[3,4-b]indole], the EC50 turned out to be 1900 nM and the Emax is more than 80%.

`Cc1nccc2c1[nH]c1c(-c3cccc(OCc4nccs4)c3)cc(Cl)cc12` [Example 273, 6-Chloro-1-methyl-8-[3-(thiazol-2-ylmethoxy)-phenyl]-9H-pyrido[3,4-b]indole] came in with an EC50 of 170 nM and a maximal response (Emax) of less than 20%.

Regarding `Cc1nccc2c1[nH]c1c(-c3cccc(OCc4ncc5ccccc5n4)c3)cc(Cl)cc12` [Example 274, 6-Chloro-1-methyl-8-[3-(quinazolin-2-ylmethoxy)-phenyl]-9H-pyrido[3,4-b]indole], the EC50 is more than 3300 nM and the Emax was less than 20%.

`COc1cc(OC)nc(COc2ccc(-c3cc(Cl)cc4c3[nH]c3c(C)nccc34)cc2)n1` [Example 275, 6-Chloro-8-[4-(4,6-dimethoxy-pyrimidin-2-ylmethoxy)-phenyl]-1-methyl-9H-pyrido[3,4-b]indole] showed an EC50 of 300 nM and a maximal response (Emax) of more than 80%.

`CCn1c2c(-c3cnn(CC4OCCO4)c3)cc(Cl)cc2c2ccnc(C)c21` [Example 276, 6-Chloro-8-(1-[1,3]dioxolan-2-ylmethyl-1H-pyrazol-4-yl)-9-ethyl-1-methyl-9H-pyrido[3,4-b]indole]: the EC50 came to 420 nM and the Emax is more than 80%.

In the case of `Cc1nccc2c1[nH]c1c(-c3cccc(OCc4ccc(C(F)(F)F)o4)c3)cc(Cl)cc12` [Example 277, 6-Chloro-1-methyl-8-[3-(5-trifluoromethyl-furan-2-ylmethoxy)-phenyl]-9H-pyrido[3,4-b]indole], the EC50 was more than 3300 nM and the Emax was less than 20%.

With `Cc1nccc2c1[nH]c1c(-c3ccc(OCC4COc5ccccc5O4)cc3)cc(Cl)cc12` (centres unmarked) [Example 278, 6-Chloro-8-[4-(2,3-dihydro-benzo[1,4]dioxin-2-ylmethoxy)-phenyl]-1-methyl-9H-pyrido[3,4-b]indole], the EC50 was more than 3300 nM and the Emax fell in the range of 20 to 50%.

As for `Clc1cc(-c2ccc(Cl)nc2)c2c(c1)c1ccncc1n2CC1CCC1` [Example 279, 6-Chloro-8-(6-chloro-pyridin-3-yl)-9-cyclobutylmethyl-9H-pyrido[3,4-b]indole], the EC50 amounted to 1800 nM and the Emax lay in the range of 20 to 50%.

For the compound `Clc1cc(-c2cccnc2)c2c(c1)c1ccncc1n2CC1CC1` [Example 280, 6-Chloro-9-cyclopropylmethyl-8-pyridin-3-yl-9H-pyrido[3,4-b]indole], the EC50 is more than 10000 nM and the Emax was less than 20%.

Take `Cc1nccc2c3cc(Cl)cc(-c4cncnc4)c3n(CC3CC3)c12` [Example 281, 6-Chloro-9-cyclopropylmethyl-1-methyl-8-pyrimidin-5-yl-9H-pyrido[3,4-b]indole]: the midpoint of the response, the EC50, lay at 110 nM and the Emax is less than 20%.

Consider `Cc1nccc2c3cc(Cl)cc(-c4ccc(Cl)cc4Cl)c3n(CC3CC3)c12` [Example 282, 6-Chloro-9-cyclopropylmethyl-8-(2,4-dichloro-phenyl)-1-methyl-9H-pyrido[3,4-b]indole], for which the EC50 is 3600 nM and the Emax was less than 20%.
